Test results published in US11684616B2, “Azalactam compounds as HPK1 inhibitors” (PFIZER INC., priority 2020, dated 2023).

Columns and labels:
[1] = biological target: human full-length autophosphorylated recombinant HPK1 (Homo sapiens (Human), UniProt Q92918); assay: HPK1 biochemical enzyme assay (chelation-enhanced fluorescence, CHEF); conditions: 0.5 nM HPK1, 45 μM ATP, Morrison fit
How it was run: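 Autophosphorylated full-length human HPK1 from Sf21 cells, His-tag removed by TEV, residual N-terminal Gly-Ser. Activity measured with a C-Sox fluorescent peptide substrate (CHEF); initial velocities followed at λex 360/λem 500 nm, 30 °C for 15 min.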

[2] = system: Phospho-SLP-76 (Ser376) in Jurkat cells; assay: Phospho-SLP-76 (Ser376) HTRF assay in anti-CD3 stimulated Jurkat cells; format: cell-based; conditions: Homo sapiens, Jurkat, 30 min pre-treatment, anti-CD3 stimulation 15 min, read-out: pSLP76 IC50
How it was run: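 Jurkat cells pre-treated 30 min with compound (11-point 3-fold series, final 10 μM to 0.1 nM, 0.1% DMSO), then stimulated 15 min at 37° C with 200 μg/mL F(ab)2-complexed anti-CD3 (UCTH1). Lysate phospho-SLP-76 read by HTRF sandwich after overnight RT incubation; IC50 from four-parameter fit.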

[3] = biological target: Human recombinant full-length GST-tagged PRKD2 (PKD2) (Homo sapiens (Human), UniProt Q9BZL6); assay: Biochemical selectivity kinase assay (Z'-LYTE FRET), PRKD2; conditions: for IC50: 25 μM ATP (~Km); for PRKD2 IC50/HPK1 Ki: ratio of the PRKD2 IC50 to the HPK1 Ki
Text: (§1) Biochemical Selectivity Kinase Assay.
(§2) The dose response curve was curve fit to model number 205 (sigmoidal dose-response model). A ratio of the PRKD2 IC50 to the HPK1 Ki and a ratio of the RSK3 IC50 to the HPK1 Ki, is provided in the respective columns adjacent to the columns for PRKD2 IC50 and RSK3 IC50.

[4] = biological target: Human recombinant full-length GST-tagged RPS6KA2 (RSK3) (Homo sapiens (Human), UniProt Q15349); assay: Biochemical selectivity kinase assay (Z'-LYTE FRET), RSK3; conditions: for IC50: 10 μM ATP (~Km); for RSK3 IC50/HPK1 Ki: ratio of the RSK3 IC50 to the HPK1 Ki
Text: as §1, §2

Chain of Human recombinant full-length GST-tagged RPS6KA2 (RSK3) (Q15349 whole entry): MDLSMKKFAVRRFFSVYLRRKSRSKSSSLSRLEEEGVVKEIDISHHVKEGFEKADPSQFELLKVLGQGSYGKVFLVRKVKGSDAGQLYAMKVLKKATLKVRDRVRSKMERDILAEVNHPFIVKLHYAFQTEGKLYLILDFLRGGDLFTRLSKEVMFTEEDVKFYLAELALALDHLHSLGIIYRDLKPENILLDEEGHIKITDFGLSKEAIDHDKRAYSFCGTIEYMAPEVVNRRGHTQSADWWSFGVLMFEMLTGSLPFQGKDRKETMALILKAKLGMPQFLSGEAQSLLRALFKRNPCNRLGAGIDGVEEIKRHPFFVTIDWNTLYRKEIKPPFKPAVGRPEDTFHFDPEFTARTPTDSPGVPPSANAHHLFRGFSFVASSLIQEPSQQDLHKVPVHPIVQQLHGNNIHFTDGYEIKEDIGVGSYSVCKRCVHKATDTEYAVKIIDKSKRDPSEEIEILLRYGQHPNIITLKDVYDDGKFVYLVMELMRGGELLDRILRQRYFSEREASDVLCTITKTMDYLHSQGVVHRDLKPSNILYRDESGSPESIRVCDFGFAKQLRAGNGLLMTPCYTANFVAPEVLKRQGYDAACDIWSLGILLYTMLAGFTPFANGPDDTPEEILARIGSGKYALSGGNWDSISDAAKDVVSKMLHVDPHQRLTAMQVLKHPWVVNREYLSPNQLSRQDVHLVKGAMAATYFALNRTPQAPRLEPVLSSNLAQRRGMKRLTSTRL
Chain of human full-length autophosphorylated recombinant HPK1 (Q92918 other isoform, or with tags, fused parts or gaps): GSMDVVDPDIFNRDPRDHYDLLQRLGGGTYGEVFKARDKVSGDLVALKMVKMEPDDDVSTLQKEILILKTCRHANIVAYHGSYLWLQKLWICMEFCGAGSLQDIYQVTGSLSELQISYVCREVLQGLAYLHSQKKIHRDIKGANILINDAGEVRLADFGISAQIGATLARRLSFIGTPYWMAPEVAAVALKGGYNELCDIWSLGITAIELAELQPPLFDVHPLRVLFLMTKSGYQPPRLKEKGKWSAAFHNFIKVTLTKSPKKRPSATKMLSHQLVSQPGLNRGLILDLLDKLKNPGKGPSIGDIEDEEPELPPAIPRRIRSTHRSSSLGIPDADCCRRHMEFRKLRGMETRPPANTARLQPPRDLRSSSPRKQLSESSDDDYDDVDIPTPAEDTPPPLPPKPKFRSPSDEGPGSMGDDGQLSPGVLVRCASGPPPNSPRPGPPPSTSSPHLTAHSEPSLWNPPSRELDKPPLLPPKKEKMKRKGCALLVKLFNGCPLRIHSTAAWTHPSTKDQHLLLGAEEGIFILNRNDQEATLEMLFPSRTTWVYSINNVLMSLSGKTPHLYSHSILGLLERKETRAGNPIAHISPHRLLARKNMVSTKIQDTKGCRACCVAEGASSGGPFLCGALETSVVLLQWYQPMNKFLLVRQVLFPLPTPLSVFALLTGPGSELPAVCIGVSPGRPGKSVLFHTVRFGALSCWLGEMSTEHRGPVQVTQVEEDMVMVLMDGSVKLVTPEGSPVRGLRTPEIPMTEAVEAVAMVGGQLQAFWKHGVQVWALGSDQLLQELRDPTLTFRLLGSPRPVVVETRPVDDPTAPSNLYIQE
Chain of Human recombinant full-length GST-tagged PRKD2 (PKD2) (Q9BZL6 whole entry): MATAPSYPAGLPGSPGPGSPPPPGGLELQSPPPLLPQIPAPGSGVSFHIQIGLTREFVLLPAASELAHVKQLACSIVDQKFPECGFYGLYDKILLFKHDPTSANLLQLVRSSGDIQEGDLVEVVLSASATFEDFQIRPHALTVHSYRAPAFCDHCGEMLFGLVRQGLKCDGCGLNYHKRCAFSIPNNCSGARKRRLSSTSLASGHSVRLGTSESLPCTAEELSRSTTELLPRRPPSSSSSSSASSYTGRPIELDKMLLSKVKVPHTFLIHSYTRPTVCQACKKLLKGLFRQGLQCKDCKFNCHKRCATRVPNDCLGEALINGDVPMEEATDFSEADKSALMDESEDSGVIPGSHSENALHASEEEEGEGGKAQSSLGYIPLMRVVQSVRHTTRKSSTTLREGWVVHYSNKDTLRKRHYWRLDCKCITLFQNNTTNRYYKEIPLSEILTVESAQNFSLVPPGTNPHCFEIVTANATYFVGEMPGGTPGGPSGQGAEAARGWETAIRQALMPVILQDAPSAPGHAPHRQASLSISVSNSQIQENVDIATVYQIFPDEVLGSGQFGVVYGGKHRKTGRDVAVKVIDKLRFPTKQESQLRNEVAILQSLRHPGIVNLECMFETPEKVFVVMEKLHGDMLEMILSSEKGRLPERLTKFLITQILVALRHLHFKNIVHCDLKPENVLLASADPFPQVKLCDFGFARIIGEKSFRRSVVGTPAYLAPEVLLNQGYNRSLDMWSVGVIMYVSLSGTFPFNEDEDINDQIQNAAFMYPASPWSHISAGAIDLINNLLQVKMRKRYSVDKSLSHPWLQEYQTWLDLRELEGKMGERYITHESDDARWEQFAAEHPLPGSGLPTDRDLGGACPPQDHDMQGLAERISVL

Row | Structure (SMILES) | Ki [1] [nM] | IC50 [2] [nM] | IC50 [3] [nM] | PRKD2 IC50/HPK1 Ki [3] | IC50 [4] [nM] | RSK3 IC50/HPK1 Ki [4]
1 | CC[C@H]1CCc2nnc(-c3cccc(N4Cc5c(cc(N(C)C(C)C)nc5CNC)C4=O)n3)n21 [Example 201, 2-{6-[(5S)-5-ethyl-6,7-dihydro-5H-pyrrolo[2,1-c][1,2,4]triazol-3-yl]pyridin-2-yl}-4-[(methylamino)methyl]-6-[methyl(propan-2-yl)amino]-2,3-dihydro-1H-pyrrolo[3,4-c]pyridin-1-one] | < 0.05 | 37 | 5.43 | >108 | 6.73 | >134
2 | CC[C@H]1CCc2nnc(-c3cccc(N4Cc5c(cc(N6CCC[C@H]6C)nc5[C@@H](C)N)C4=O)n3)n21 [Example 2, 4-[(1R)-1-aminoethyl]-2-{6-[(5S)-5-ethyl-6,7-dihydro-5H-pyrrolo[2,1-c][1,2,4]triazol-3-yl]pyridin-2-yl}-6-[(2R)-2-methylpyrrolidin-1-yl]-2,3-dihydro-1H-pyrrolo[3,4-c]pyridin-1-one] | < 0.05 | 30 | 116 | >2320 | 21.3 | >420
3 | CNCc1nc(N2CCC[C@H]2C)cc2c1CN(c1cccc(-c3nnc4n3[C@@H](CF)CC4)n1)C2=O [Example 202, 2-{6-[(5R)-5-(fluoromethyl)-6,7-dihydro-5H-pyrrolo[2,1-c][1,2,4]triazol-3-yl]pyridin-2-yl}-4-[(methylamino)methyl]-6-[(2R)-2-methylpyrrolidin-1-yl]-2,3-dihydro-1H-pyrrolo[3,4-c]pyridin-1-one] | 0.06 | 25 | 6.54 | 108 | 40.1 | 667
4 | CC[C@H]1CCc2nnc(-c3cccc(N4Cc5c(cc(N(C)C(C)C)nc5[C@@H](C)N)C4=O)n3)n21 [Example 4, 4-[(1R)-1-aminoethyl]-2-{6-[(5S)-5-ethyl-6,7-dihydro-5H-pyrrolo[2,1-c][1,2,4]triazol-3-yl]pyridin-2-yl}-6-[methyl(propan-2-yl)amino]-2,3-dihydro-1H-pyrrolo[3,4-c]pyridin-1-one] | < 0.05 | 36 | 217 | >4304 | 25.8 | >520

Other lines, results leading:

Row | Ki [1] [nM] | IC50 [2] [nM] | IC50 [3] [nM] | PRKD2 IC50/HPK1 Ki [3] | IC50 [4] [nM] | RSK3 IC50/HPK1 Ki [4] | Structure (SMILES)
5 | < 0.05 | 16 | 7.97 | >160 | 10.1 | >200 | CC[C@H]1CCc2nnc(-c3cccc(N4Cc5c(cc(N6CCC[C@H]6C)nc5CNC)C4=O)n3)n21 [Example 200, 2-{6-[(5S)-5-ethyl-6,7-dihydro-5H-pyrrolo[2,1-c][1,2,4]triazol-3-yl]pyridin-2-yl}-4-[(methylamino)methyl]-6-[(2R)-2-methylpyrrolidin-1-yl]-2,3-dihydro-1H-pyrrolo[3,4-c]pyridin-1-one]
6 | < 0.05 | 39 | 51.2 | >1020 | 15.5 | >320 | CCn1cnnc1-c1cccc(N2Cc3c(cc(N4CCC[C@H]4C)nc3C(C)(C)N)C2=O)n1 [Example 100, 4-(2-aminopropan-2-yl)-2-[6-(4-ethyl-4H-1,2,4-triazol-3-yl)pyridin-2-yl]-6-[(2R)-2-methylpyrrolidin-1-yl]-2,3-dihydro-1H-pyrrolo[3,4-c]pyridin-1-one]
